# Assay results: US20230256007A1 (priority 2022, published 2023)
# Columns and labels:
# [1] = tested on: patient with sequelae of influenza virus type A infection; details: Case 3
# [2] = tested on: patient with sequelae of infection with the delta variant of coronavirus; details: Case 1
# Source text: Although the patient was cured after home care, their activity level was lower than that of a healthy person. Fatigue, pain, and decrease in thinking power progressed extremely, and the level of daily life decreased below the level of a healthy person, so they underwent a medical examination at the hospital. The diagnosis based on the physician’s diagnostic criteria was as follows. • (i) Fatigue - persistent, fatigue so pronounced that the activity level is severely impaired: severity 3 (severe) • (ii) Feeling of fatigue after exertion - loss of physical and mental endurance, fatigue aggravated by physical exertion: severity 3 (severe) • (iii) Long recovery time from exertion - it takes 24 hours or more to recover to pre-exertion activity level: severity 2 (moderate) • (iv) Pain - muscle pain, joint pain, headache: severity 2 (moderate) • (v) Sleeping disorder - nonrestorative sleep, insomnia, hypersomnia: severity 2 (moderate) • (vi) Confusion and loss of concentration: severity 2 (moderate) • (vii) Memory impairment - short-term memory is impaired: severity 1 (mild) • (viii) Shortness of breath associated with exertion: severity 2 (moderate) • (ix) Gastrointestinal disorder - diarrhea, irritable bowel syndrome: severity 1 (mild) • (x) Repeated sore throat: severity 1 (mild) • (xi) Dizziness when standing up or fragility: severity 1 (mild) • (xii) Heat/cold intolerance: severity 1 (mild) • (xiii) Body temperature changes, irregular body temperature, cold hands and feet: severity 1 (mild)
# [3] = around 3 weeks after inhalation
# [4] = after 4 weeks of inhalation, before inhalation severity 2: moderate
structure (smiles),measurement,setting,value
"[HH] [hydrogen gas, hydrogen]",Number of days without naps,[1]; after 8 weeks,increased
same,Amount of time for physical activity,"[1]; after 8 weeks, although there was malaise",increased
same,Bowel movements and decreased motivation,[1]; [3],improvement
same,Nap time,[1]; [3],decreased
same,General feeling,"[1]; around 3 weeks after inhalation, about 4% to 5% hydrogen, 5 hours per day",felt a little lighter
same,"Effect on chronic fatigue, pain, and brain fog (summary)",[2],clearly effective
same,Feeling on inhalation (sympathetic nerves high before inhalation),[2]; after 2 weeks of inhalation,felt relaxed and drowsy
same,Foggy head / brain fog,[2]; after 2 weeks of inhalation,their head appeared clear and refreshed
same,Frequency of headache and generalized pain,[2]; after 2 weeks of inhalation,seemed to decrease
same,Number of doses of analgesics,[2]; after 2 weeks of inhalation,decreased
same,Bedridden chronic severe fatigue (patient's impression),[2]; after 4 weeks of inhalation,significantly alleviated
same,Cognitive ability (patient's impression),[2]; after 4 weeks of inhalation,regained some of their writing and summarizing skills
same,Foggy feeling in the brain (patient's impression),[2]; after 4 weeks of inhalation,alleviated
same,Number of doses of analgesics relative to that before hydrogen inhalation,[2]; after 4 weeks of inhalation,¼
same,Other symptoms (not significantly recovered),[2]; after 4 weeks of inhalation,did not worsen
same,Sleeping disorder,[2]; after 4 weeks of inhalation,same strong symptoms as before
same,Long recovery time from exertion: severity after inhalation (physician's diagnosis),[2]; [4],severity 1: mild
same,Loss of concentration: severity after inhalation (physician's diagnosis),[2]; [4],severity 1: mild
same,"Pain, headache: severity after inhalation (physician's diagnosis)",[2]; [4],severity 1: mild
same,Repeated sore throat: severity after inhalation (physician's diagnosis),[2]; [4],severity 1: mild
same,"Fatigue - persistent, activity level severely impaired: severity after inhalation (physician's diagnosis)","[2]; after 4 weeks of inhalation, before inhalation severity 3: severe","severity 1: mild, or severity 2: moderate"
same,Days on which they feel better like a healthy person,"[2]; after 4 weeks of inhalation, still falls asleep 2 or 3 days a week",more than half the days of the week
same,"Pain due to training, the next day",[2]; inhalation for about 90 minutes every day,almost eliminated the pain the next day
same,Falling asleep 1 to 2 hours after exertion (sudden intense fatigue),[2]; inhaling hydrogen for about 90 minutes,can avoid falling asleep
same,Frequency of headache (patient's impression),"[2]; since the start of inhalation, once or twice a week before","decreased significantly, and headache has almost disappeared"
same,Muscle pain and joint pain after training,[2]; two weeks after starting inhalation,began to be greatly alleviated
